Laboratory results from PubChem BioAssay (NCI).
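Values below derive from 48-hour exposures of cells grown in 96-well plates, with endpoints linearly interpolated between the two concentrations bracketing the appropriate inhibition level. TGI is the concentration that stops growth completely.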

Legend:
Assay in all cases: DTP human tumour cell line panel, 48 h
[1] = system: RXF-631 renal
[2] = system: KM20L2 colon
[3] = system: SF-539 CNS
[4] = system: K-562 leukemia
[5] = system: LXFL 529 NSCLC
[6] = system: A498 renal
[7] = system: SW-620 colon
[8] = system: NCI-H460 lung
[9] = system: HT29 colon
[10] = system: HCT-116 colon
[11] = system: UACC-62 melanoma
[12] = system: SNB-75 CNS
[13] = system: SNB-78 CNS
[14] = system: OVCAR-8 ovarian
[15] = system: SF-268 CNS
[16] = system: RXF 393 renal
[17] = system: IGROV1 ovarian
[18] = system: UACC-257 melanoma
[19] = system: NCI-H23 lung
[20] = system: KM12 colon
[21] = system: SN12C renal
[22] = system: LOX IMVI melanoma
[23] = system: U251 CNS
[24] = system: OVCAR-4 ovarian
[25] = system: MALME-3M melanoma
[26] = system: HOP-18 NSCLC
[27] = system: SK-MEL-5 melanoma
[28] = system: M14 melanoma
[29] = system: OVCAR-3 ovarian
[30] = system: HCC-2998 colon
[31] = system: DMS 273 small cell lung
[32] = system: COLO 205 colon
[33] = system: HOP-92 NSCLC
[34] = system: ACHN renal
[35] = system: CAKI-1 renal
[36] = system: NCI-H226 lung
[37] = system: CCRF-CEM leukemia
[38] = system: SF-295 CNS
[39] = system: A549 NSCLC
[40] = system: SNB-19 CNS
[41] = system: NCI-H522 lung
[42] = system: DMS 114 small cell lung
[43] = system: OVCAR-5 ovarian
[44] = system: HOP-62 NSCLC
[45] = system: MOLT-4 leukemia
[46] = system: SK-MEL-2 melanoma
[47] = system: TK-10 renal
[48] = system: 786-0 renal
[49] = system: EKVX NSCLC
[50] = system: HCT-15 colon
[51] = system: SK-MEL-28 melanoma
[52] = system: M19-MEL melanoma
[53] = system: DLD-1 colon
[54] = system: RPMI-8226 leukemia
[55] = system: UO-31 renal
[56] = system: NCI/ADR-RES ovarian
[57] = system: XF 498 CNS
[58] = system: HS 578T breast
[59] = system: HL-60(TB) leukemia
[60] = system: SK-OV-3 ovarian
[61] = system: T-47D breast
[62] = system: MCF7 breast
[63] = system: MDA-MB-435
[64] = system: BT-549 breast
[65] = system: MDA-MB-231 breast
[66] = system: DU-145 prostate
[67] = system: MDA-N
[68] = system: PC-3 prostate
[69] = system: SR leukemia

Measured: TGI

CCC1(CN(C)C)CC/C(=C\c2ccc(OC)cc2)C1=O (stereo not drawn)
not listed: [56] | [57] | [58] | [59] | [60] | [61] | [62] | [63] | [64] | [65] | [66] | [67] | [68] | [69]
> 100 µM: all other assays above

O=c1oc2ccccc2c(O)c1C(C/C(CCN1CCCC1)=N/O)c1ccccc1 (stereo not drawn)
> 31.6 µM: [4] | [59]
not listed: [13] | [26] | [31] | [37]
> 100 µM: all other assays above

C#CCN(Cc1ccc2nc(-c3ccccc3)c(Cl)nc2c1)c1cc(OC)c(OC)c(OC)c1
51.8 µM: [42]
43.5 µM: [54]
40.4 µM: [22]
34.2 µM: [7]
not listed: [56] | [57] | [58] | [61] | [62] | [63] | [64] | [65] | [66] | [67] | [68] | [69]
> 100 µM: all other assays above

NC(CCCNCc1ccccc1)C(=O)O (stereo not drawn)
not listed: [13] | [16] | [23] | [30] | [38] | [43] | [56] | [57] | [58] | [61] | [62] | [63] | [64] | [65] | [66] | [67] | [68] | [69]
> 100 µM: all other assays above
